The values that follow come from patent publication US20250339569A1, “CARBONIC ANHYDRASE IX LIGANDS” (priority 2021, published 2025).

SMILES strings stand for the structures. Read-outs that look alike come from different tables or passages of the source.

The subject of data set [1] is SK-RC-52 tumor. Nature of the data set: Biodistribution study (SPECT/CT) in SK-RC-52 tumor-bearing mice with or without gelofusine. The format is in vivo, NMRI nude mice. Particulars: SK-RC-52, In-111-labeled; for % remaining tumor uptake at 24 h p.i.: Mean ± SEM. As to the method:
(§1) The effect on tumor uptake of prior injection of gelofusine for kidney protection was investigated in mice bearing the SK-RC-52 tumor. Biodistribution was evaluated using in vivo SPECT/CT imaging. Prior to the in vivo study the compounds (ligands) were initially radiolabeled with In-111 and the stability of radiolabeled compounds was evaluated in buffer at three different timepoints.
(§2) The study was performed in female NMRI nude mice (approximately 6 weeks of age) from Janvier Labs, France, housed up to 5 mice per cage.
(§3) The column was washed with 2 mL water, and then the final product was eluted from the column in EtOH solution (50%) • The sample was formulated in PBS to the final concentration of 150 MBq/mL and 5 nmol/mL.
(§4) SK-RC-52 cells were cultured in RPMI 1640 with GlutaMax-I (Thermo Fisher Scientific #61870044) supplemented with 10% fetal bovine serum+1% penicillin/streptomycin, harvested, washed twice in RPMI 1640 and resuspended at 2×10^7 cells/mL in RPMI 1640. HT-29 cells were cultured in McCoy's 5a Medium Modified (Sigma #M9309). For inoculation of HT-29 cells, cells were harvested, washed twice in PBS and resuspended at 5×10^7 cells/mL in PBS. Cells were kept on ice until inoculation.
(§5) Animals were anaesthetized (isoflurane, 2-4% in ambient air supplemented with 100% 02) prior to tumor inoculation. The tumor cells (100 μL suspension of either SK-RC-52 cells (2×10^6 cells/animal) or HT-29 cells (5×10^6 cells/animal)) were subcutaneously inoculated in the right flank using a 1-mL syringe equipped with a 27 G needle. Tumor growth and animal weight were measured twice per week. Tumor size was measured by caliper and the volume was estimated using the following formula: 0.52×(length×width^2). When tumor sizes reached 150-250 mm^3, animals were randomized into groups (n=3) of similar average tumor volume and body weight.
(§6) Animals were injected intravenously with In-111-labeled compounds (single bolus, 22.3-31.2 MBq, ˜1 nmol ligand, injection volume: 100 μL) in the lateral tail vein using a 29 G syringe.
(§7) CT was performed with helical scan, 300 ms exposure, reconstruction resolution of 250 μm. SPECT was performed with multi-pinhole scan and a 30 s frame time. For the quantification of the radioactivity uptake, regions of interests (ROIs) were drawn over the tumor, kidney, liver, and heart (estimate of blood) identified on the images. Uptake was expressed as percent of injected dose per gram tissue (% ID/g).

Assay in data set [2]: as above
The data set is classed as in vivo, NMRI nude mice. Particulars: female, NMRI nude, mouse, in vivo, iv, total radioactivity. The procedure: as §1, §2, §3, §4, §5, §6, §7

Data set [3] is described as follows: Pharmacokinetic characterization in healthy dogs. Particulars: dog; for AUC(0-inf) / Cmax / clearance / half-life / Vd / CL renal: male, beagle, iv; for AUC(0-inf) / Cmax / clearance / half-life / Vd: plasma; for half-life: read-out: terminal half-life (T1/2) (converted); for Vd: read-out: volume of distribution; for CL renal: urine and plasma, read-out: estimated renal clearance. The data set is classed as in vivo, beagle dogs. The procedure: The pharmacokinetics of DPI-4452 after a single intravenous (i.v.) dose was investigated in healthy dogs. […] Plasma and urine samples collected after dosing were analyzed using a LC-HRMS (liquid chromatography coupled with high-resolution mass spectrometry) assay method. Concentration values were used for pharmacokinetic calculations.
DPI 4452 was formulated in 0.1 M HEPES pH 7.0 at the final concentrations of 0.05 and 0.4 mg/mL for dosing at 0.1 and 0.8 mg/kg, respectively. Male beagle dogs (3 animals per dose level; overall 8.9 to 12.4 kg body weight) were administered intravenously (bolus) in a 2 mL/kg dosing volume. Blood samples were collected in K2EDTA tubes at 5 min, 15 min, 30 min, 1 h, 2 h, 4 h, 6 h, 24 h, and urine was collected over 24 hours post dose. The blood samples were kept on wet ice until plasma separation by centrifugation within 60 min after sampling. The plasma samples were transferred into plastic tubes, frozen and stored at −80° C. until analysis.
Plasma and urine samples were analyzed by […] after solid phase extraction, using DPI-4501 as internal standard. Chromatographic separation was run on a Waters Acquity HSS T3 C18 2.1×50 mm, 1.8 μm column. Detection was achieved on a Sciex API6600 TOF mass spectrometer. The lower limit of quantification was 2.00 ng/mL in urine and plasma.
The NCA pharmacokinetic analysis of plasma concentration data was conducted using Phoenix WinNonlin 6.3 software. Nominal doses were used for all animals. The terminal phase half-life (T1/2) was calculated by least-squares regression analysis of the terminal linear part of the log concentration-time curve. The area under the plasma concentration-time curve (AUC) was determined with the linear trapezoidal rule for increasing values and log trapezoidal rule for decreasing values up to the last measurable concentration.

Data set [4] is described as follows: Biodistribution study in healthy dog (SPECT/CT, blood pharmacokinetics, urine excretion). Particulars: in vivo.

One may read the AUC(0-inf) as the area under the concentration-time curve extrapolated to infinity. Higher therefore signals more exposure. Usually Cmax stands for the highest concentration seen after dosing. As usually defined, the clearance is a measure of how efficiently the substance is removed, as volume per time. As for `CC(C)C[C@@H]1NC(=O)[C@H](Cc2cccc(NC(=O)CCCS(N)(=O)=O)c2)NC(=O)[C@H](CC(=O)O)NC(=O)[C@H]2CCCN2C(=O)[C@H](CCC(=O)O)NC(=O)[C@@H](NC(=O)[C@H](CCC(N)=O)NC(=O)CN2CCN(C(=O)CN3CCN(CC(=O)O)CCN(CC(=O)O)CCN(CC(=O)O)CC3)CC2)CSCc2cccc(c2)CSC[C@@H](C(N)=O)NC(=O)[C@H](CO)NC(=O)[C@H](Cc2c[nH]c3ccccc23)NC(=O)[C@H]([C@@H](C)O)NC1=O` [DPI-4452, DOTA-PPAc-Gln-[Cys(3MeBn)-Glu-pro-Asp-Af3(Cpsu)-Leu-Thr-Trp-Ser-Cys]-NH2], in data set [1] (4% gelofusine before), the “Time to peak uptake in tumor” value is 4 h and the “% remaining tumor uptake at 24 h p.i.” value came to 69.6 ± 6.6%. In addition, in data set [1] (no gelofusine), the “Time to peak uptake in tumor” value amounted to 1 h and the “% remaining tumor uptake at 24 h p.i.” value is on record as 73.3 ± 0.8%. Further, the tissue uptake at 4 h in data set [2] (SK-RC-52, In-111-labeled, 4% gelofusine before, Mean ± SEM, read-out: Blood uptake at 4 h p.i.) came out at 0.03 ± 0.01 %ID/g. In addition, in data set [2] (SK-RC-52, In-111-labeled, 4% gelofusine before, Mean ± SEM, read-out: Kidney uptake at 24 h p.i.), the tissue uptake at 24 h is 0.73 ± 0.2 %ID/g. Also, the tissue uptake at 4 h in data set [2] (SK-RC-52, In-111-labeled, 4% gelofusine before, Mean ± SEM, read-out: Liver uptake at 4 h p.i.) came out at 0.12 ± 0.01 %ID/g. Moreover, the tissue uptake in data set [2] (SK-RC-52, In-111-labeled, 4% gelofusine before, Mean ± SEM, read-out: Peak Kidney uptake) came out at 1.84 ± 0.14 %ID/g. The tissue uptake at 4 h in data set [2] (SK-RC-52, In-111-labeled, no gelofusine, Mean ± SEM, read-out: Blood uptake at 4 h p.i.) was found to be 0.05 ± 0.01 %ID/g. In addition, the tissue uptake at 24 h in data set [2] (SK-RC-52, In-111-labeled, no gelofusine, Mean ± SEM, read-out: Kidney uptake at 24 h p.i.) turned out to be 0.95 ± 0.05 %ID/g. Besides, the tissue uptake at 4 h in data set [2] (SK-RC-52, In-111-labeled, no gelofusine, Mean ± SEM, read-out: Liver uptake at 4 h p.i.) was found to be 0.18 ± 0.04 %ID/g. Also, the tissue uptake in data set [2] (SK-RC-52 tumor mice, In-111-labeled, 4% gelofusine immediately before, Mean ± SEM, N=3, read-out: Peak Tumor Uptake) was determined as 13.4 ± 0.39 %ID/g. For the same compound, in data set [3] (i.v. 0.1 mg/kg), the “time up to which plasma concentration was quantifiable” value was “up to 2 h”, the area under the curve AUC(0-inf) is 133 ng·h/mL, the peak level (Cmax) was 377 ng/mL and the clearance turned out to be 12.7 mL/min/kg. Besides, in data set [3] (i.v. 0.1 mg/kg), the half-life was 22.8 min, the Vd worked out at 0.26 L/kg and the CL renal is 2.06 mL/h/kg. In data set [3] (i.v. 0.8 mg/kg), the “time up to which plasma concentration was quantifiable” value was no more than 4 h, the AUC(0-inf) is 1760 ng·h/mL, the peak level (Cmax) was 4430 ng/mL and the clearance was determined as 7.6 mL/min/kg. Also, in data set [3] (i.v. 0.8 mg/kg), the half-life was 28.8 min, the Vd was 0.19 L/kg and the CL renal is 0.684 mL/h/kg.

For `CC(C)C[C@@H]1NC(=O)[C@H](Cc2cccc(NC(=O)CCCS(N)(=O)=O)c2)NC(=O)[C@H](CC(=O)O)NC(=O)[C@H]2CCCN2C(=O)[C@H](CCC(=O)O)NC(=O)[C@@H](NC(=O)[C@H](CCC(N)=O)NC(=O)CN2CCN(C(=O)CN3CCN(CC(=O)O)CCN(CC(=O)O)CCN(CC(=O)O)CC3)CC2)CSCc2cccc(c2)CSC[C@@H](C(N)=O)NC(=O)[C@H](CO)NC(=O)[C@H](Cc2c[nH]c3ccccc23)NC(=O)[C@H]([C@@H](C)O)NC1=O` [[^111In]In-DPI-4452, metal not drawn], the half-life in data set [4] was 55.6 min; in data set [4] (iv), 5.43 min. Also, the tissue uptake was found to be 1.84 ± 0.14 %ID/g in data set [2] (SK-RC-52 model, with gelofusine, 1-2 hours post injection, read-out: peak kidney uptake); 13.4 ± 0.39 %ID/g in data set [2] (SK-RC-52 tumor, 4% gelofusine immediately before, peak at 4 hours (DPI-4452) or 1 hour (DPI-4501), mean±SEM, read-out: peak tumor uptake); 7 %ID/g in data set [2] (summary over tumor models, read-out: peak tumor uptake, typical (conclusion)). Further, the tissue uptake at 24 h in data set [2] (SK-RC-52 model, with gelofusine, 24 hours post injection, read-out: kidney uptake) amounted to 0.73 ± 0.02 %ID/g; in data set [2] (SK-RC-52 model, without gelofusine, 24 hours post injection, read-out: kidney uptake), 0.95 ± 0.05 %ID/g.
